The record followed here is ChEMBL document CHEMBL3822367, “Use of Photosensitizers in Semisolid Formulations for Microbial Photodynamic Inactivation” (2016).

This assay concerns Mycobacterium tuberculosis variant bovis BCG. Briefly: Antimycobacterial activity against Mycobacterium bovis BCG Pasteur ATCC 35734 assessed as cell survival at 5 uM after 1 hr followed by irradiation with light at 60 to 100 J/cm'2. The format is functional, organism-based.

As for VERTEPORFIN, the Survival came to 26%.
